Results on 28 compounds are retold here after patent US10758534B2 (Vertex Pharmaceuticals Incorporated, priority 2014, dated 2020).

The structures appear in SMILES notation.

The target of the assay is T1, F508del (Homo sapiens, UniProt P13569, DEL508-508).
T1 construct: expressed in transfected cells
T1 sequence (P13569 with tags, fused parts or gaps DEL508-508): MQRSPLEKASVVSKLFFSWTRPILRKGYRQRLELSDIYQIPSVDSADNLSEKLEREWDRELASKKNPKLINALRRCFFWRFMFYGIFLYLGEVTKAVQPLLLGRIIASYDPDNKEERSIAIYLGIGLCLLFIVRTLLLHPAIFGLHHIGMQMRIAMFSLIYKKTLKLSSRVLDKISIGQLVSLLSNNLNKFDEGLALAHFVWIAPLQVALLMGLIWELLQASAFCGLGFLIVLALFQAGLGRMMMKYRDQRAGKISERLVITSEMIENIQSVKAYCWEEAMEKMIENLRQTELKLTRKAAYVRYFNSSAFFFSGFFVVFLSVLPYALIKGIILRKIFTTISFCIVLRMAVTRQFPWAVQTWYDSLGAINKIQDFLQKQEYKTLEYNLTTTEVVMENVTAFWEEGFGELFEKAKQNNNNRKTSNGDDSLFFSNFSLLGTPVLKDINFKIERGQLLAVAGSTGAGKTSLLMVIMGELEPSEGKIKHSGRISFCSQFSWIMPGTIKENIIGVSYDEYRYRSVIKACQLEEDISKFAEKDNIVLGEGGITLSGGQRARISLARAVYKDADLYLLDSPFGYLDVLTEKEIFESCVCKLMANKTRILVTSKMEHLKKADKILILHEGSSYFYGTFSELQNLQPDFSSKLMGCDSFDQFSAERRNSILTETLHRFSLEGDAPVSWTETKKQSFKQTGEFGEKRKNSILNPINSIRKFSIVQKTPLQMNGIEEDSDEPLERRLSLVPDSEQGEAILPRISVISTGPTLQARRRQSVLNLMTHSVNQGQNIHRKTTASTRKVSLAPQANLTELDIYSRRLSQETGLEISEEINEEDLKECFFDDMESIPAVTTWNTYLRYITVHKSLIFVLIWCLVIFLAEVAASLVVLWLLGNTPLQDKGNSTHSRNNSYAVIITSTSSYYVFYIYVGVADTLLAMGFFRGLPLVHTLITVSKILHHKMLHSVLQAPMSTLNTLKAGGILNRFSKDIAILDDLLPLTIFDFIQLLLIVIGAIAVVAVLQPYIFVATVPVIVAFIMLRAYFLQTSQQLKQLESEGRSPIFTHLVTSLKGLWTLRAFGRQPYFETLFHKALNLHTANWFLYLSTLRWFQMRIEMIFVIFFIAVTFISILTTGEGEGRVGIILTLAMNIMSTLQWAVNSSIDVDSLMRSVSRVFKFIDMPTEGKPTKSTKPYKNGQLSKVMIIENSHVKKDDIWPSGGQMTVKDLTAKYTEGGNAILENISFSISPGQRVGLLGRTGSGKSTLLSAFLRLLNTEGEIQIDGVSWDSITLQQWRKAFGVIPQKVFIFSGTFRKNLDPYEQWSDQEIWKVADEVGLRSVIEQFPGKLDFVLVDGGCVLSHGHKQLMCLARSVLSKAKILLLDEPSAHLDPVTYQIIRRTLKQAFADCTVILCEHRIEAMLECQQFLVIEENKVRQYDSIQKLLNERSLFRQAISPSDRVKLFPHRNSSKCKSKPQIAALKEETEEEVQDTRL
Put plainly: Protocol 1: membrane potential optical assay (FLIPR III, voltage sensing dye), identification of potentiator compounds. Format: cell-based. Conditions: Table 3, compounds of Table 1. Summed up:
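NIH3T3 F508del cells, 27° C × 24 hrs; compound/DMSO pretreat → redistribution dye load → single forskolin addition with Cl⁻ gradient (gluconate-substituted bath, HEPES pH 7.4). FLIPR III membrane-potential fluorescence read.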
Take `CCOc1cc(C)cc(-c2ccc(C(=O)NS(=O)(=O)c3ccc[nH]c3=O)c(Oc3c(C)cc(C)cc3C)n2)n1` [Compound 1768, 6-(6-ethoxy-4-methyl-2-pyridyl)-N-[(2-oxo-1H-pyridin-3-yl)sulfonyl]-2-(2,4,6-trimethylphenoxy)pyridine-3-carboxamide]: the EC30 entry was “++ (“++” means between 3 uM and 10 uM)”.

With `CC(C)COc1cc(F)cc(-c2ccc(C(=O)NS(=O)(=O)c3cccc(N)n3)c(OCCCCc3ccncc3)n2)c1` [Compound 1687, N-[(6-amino-2-pyridyl)sulfonyl]-6-(3-fluoro-5-isobutoxy-phenyl)-2-[4-(4-pyridyl)butoxy]pyridine-3-carboxamide], the EC30 result is listed as “+++ (“+++” means <3 uM)”.

On to `CC(C)COc1cc(F)cc(-c2ccc(C(=O)NS(=O)(=O)c3cccc(N)n3)c(OCC3CCOCC3)n2)c1` [Compound 933, N-[(6-amino-2-pyridyl)sulfonyl]-6-(3-fluoro-5-isobutoxy-phenyl)-2-(tetrahydropyran-4-ylmethoxy)pyridine-3-carboxamide], for which the EC30 result is “+++ (“+++” means <3 uM)”.

As to `C[C@@H]1CN(c2nc(C(C)(C)C)ccc2C(=O)NS(=O)(=O)c2cccc(N)n2)C(C)(C)C1` [Compound 985, N-[(6-amino-2-pyridyl)sulfonyl]-6-tert-butyl-2-[(4S)-2,2,4-trimethylpyrrolidin-1-yl]pyridine-3-carboxamide], the EC30 entry is reported as “+++ (“+++” means <3 uM)”.

As to `C[C@@H]1CN(c2nc(-c3ccccc3F)ccc2C(=O)NS(=O)(=O)c2cccnc2N)C(C)(C)C1` [Compound 1790, N-[(2-amino-3-pyridyl)sulfonyl]-6-(2-fluorophenyl)-2-[(4S)-2,2,4-trimethylpyrrolidin-1-yl]pyridine-3-carboxamide], the EC30 entry is given as “+++ (“+++” means <3 uM)”.

In the case of `Cc1cc(C)c(Oc2nc(C3=CCC(C)CC3)ccc2C(=O)NS(=O)(=O)c2ccc[nH]c2=O)c(C)c1` (stereo not shown) [Compound 1052, 6-(4-methylcyclohexen-1-yl)-N-[(2-oxo-1H-pyridin-3-yl)sulfonyl]-2-(2,4,6-trimethylphenoxy)pyridine-3-carboxamide], the EC30 entry is given as “+++ (“+++” means <3 uM)”.

In the case of `CCOc1ccc(-c2ccc(C(=O)NS(=O)(=O)c3cccc(N)n3)c(Oc3c(C)cc(C)cc3C)n2)cc1OC` [Compound 1268, N-[(6-amino-2-pyridyl)sulfonyl]-6-(4-ethoxy-3-methoxy-phenyl)-2-(2,4,6-trimethylphenoxy)pyridine-3-carboxamide], the EC30 result is given as “+++ (“+++” means <3 uM)”.

`Cc1ccc(-c2ccc(C(=O)NS(=O)(=O)c3ccc[nH]c3=O)c(Oc3c(C)cc(C)cc3C)n2)cc1` [Compound 1300, N-[(2-oxo-1H-pyridin-3-yl)sulfonyl]-6-(p-tolyl)-2-(2,4,6-trimethylphenoxy)pyridine-3-carboxamide]: the EC30 result is listed as “+++ (“+++” means <3 uM)”.

With `CC(C)Oc1cc(-c2ccc(C(=O)NS(=O)(=O)c3ccc[nH]c3=O)c(N3[C@H](C)CC[C@@H]3C)n2)ccc1Cl` [Compound 1001, 6-(4-chloro-3-isopropoxy-phenyl)-2-[(2S,5R)-2,5-dimethylpyrrolidin-1-yl]-N-[(2-oxo-1H-pyridin-3-yl)sulfonyl]pyridine-3-carboxamide], the EC30 entry was “++ (“++” means between 3 uM and 10 uM)”.

As to `Cc1cc(C)c(Oc2nc(C)ccc2C(=O)NS(=O)(=O)c2cccc(NCCCN)n2)c(C)c1` [Compound 982, N-[[6-(3-aminopropylamino)-2-pyridyl]sulfonyl]-6-methyl-2-(2,4,6-trimethylphenoxy)pyridine-3-carboxamide], the EC30 entry is “++ (“++” means between 3 uM and 10 uM)”.

With `Cc1cc(C)c(Oc2nc(-c3ccccc3Cl)ccc2C(=O)NS(=O)(=O)c2ccc[nH]c2=O)c(C)c1` [Compound 877, 6-(2-chlorophenyl)-N-[(2-oxo-1H-pyridin-3-yl)sulfonyl]-2-(2,4,6-trimethylphenoxy)pyridine-3-carboxamide], the EC30 entry was “+++ (“+++” means <3 uM)”.

Consider `CC1CN(c2ncccc2C(=O)NS(=O)(=O)c2cccc(NCc3ccc(Cl)cc3Cl)n2)C(C)(C)C1` (stereo not shown) [Compound 1968, N—[[6-[(2,4-dichlorophenyl)methylamino]-2-pyridyl]sulfonyl]-2-(2,2,4-trimethylpyrrolidin-1-yl)pyridine-3-carboxamide], for which the EC30 entry is “+++ (“+++” means <3 uM)”.

In the case of `CC1CN(c2ncccc2C(=O)NS(=O)(=O)c2cccc(OCc3cccc(C(F)(F)F)c3)n2)C(C)(C)C1` (stereo not shown) [Compound 1953, N—[[6-[[3-(trifluoromethyl)phenyl]methoxy]-2-pyridyl]sulfonyl]-2-(2,2,4-trimethylpyrrolidin-1-yl)pyridine-3-carboxamide], the EC30 result was “+++ (“+++” means <3 uM)”.

Take `CC(C)COc1cc(F)cc(-c2ccc(C(=O)NS(=O)(=O)c3cccc(N)n3)c(N3CCC(C)CC3)n2)c1` [Compound 991, N-[(6-amino-2-pyridyl)sulfonyl]-6-(3-fluoro-5-isobutoxy-phenyl)-2-(4-methyl-1-piperidyl)pyridine-3-carboxamide]: the EC30 entry is reported as “+++ (“+++” means <3 uM)”.

Consider `Cc1cc(OC(C)C)ncc1-c1ccc(C(=O)NS(=O)(=O)c2cccc(N)n2)c(N2[C@H](C)CC[C@@H]2C)n1` [Compound 1514, N-[(6-amino-2-pyridyl)sulfonyl]-2-[(2R,5S)-2,5-dimethylpyrrolidin-1-yl]-6-(6-isopropoxy-4-methyl-3-pyridyl)pyridine-3-carboxamide], for which the EC30 result is “+++ (“+++” means <3 uM)”.

Turning to `COc1cccc(-c2nc(N3CC(C)CC3(C)C)c(C(=O)NS(=O)(=O)c3cccc(N)n3)cc2C)c1` (stereo not shown) [Compound 833, N-[(6-amino-2-pyridyl)sulfonyl]-6-(3-methoxyphenyl)-5-methyl-2-(2,2,4-trimethylpyrrolidin-1-yl)pyridine-3-carboxamide], the EC30 entry was “+++ (“+++” means <3 uM)”.

For the compound `CCOc1cccc2c1CN(Cc1c(C)cccc1C)C2(C)C(=O)NS(=O)(=O)c1cccc(N)n1` (stereo not shown) [Compound 1498, N-[(6-amino-2-pyridyl)sulfonyl]-2-[(2,6-dimethylphenyl)methyl]-4-ethoxy-1-methyl-isoindoline-1-carboxamide], the EC30 entry is “+++ (“+++” means <3 uM)”.

As to `CC(C)COc1cc(F)cc(-c2ccc(C(=O)NS(=O)(=O)c3cccc4[nH]ccc34)c(N3CCC(C)(C)CC3)n2)c1` [Compound 1323, 2-(4,4-dimethyl-1-piperidyl)-6-(3-fluoro-5-isobutoxy-phenyl)-N-(1H-indol-4-ylsulfonyl)pyridine-3-carboxamide], the EC30 entry is “+ (“+” means greater than 10 uM)”.

For `CCC1CC=C(c2ccc(C(=O)NS(=O)(=O)c3cccc(N)n3)c(Oc3c(C)cc(C)cc3C)n2)CC1` (stereo not shown) [Compound 1370, N-[(6-amino-2-pyridyl)sulfonyl]-6-(4-ethylcyclohexen-1-yl)-2-(2,4,6-trimethylphenoxy)pyridine-3-carboxamide], the EC30 entry is “+++ (“+++” means <3 uM)”.

Regarding `CC(C)COc1cc(F)cc(-c2nc(N3C[C@@H](C)CC3(C)C)ccc2C(=O)NS(=O)(=O)c2cccc(N)n2)c1` [Compound 1409, N-[(6-amino-2-pyridyl)sulfonyl]-2-(3-fluoro-5-isobutoxy-phenyl)-6-[(4S)-2,2,4-trimethylpyrrolidin-1-yl]pyridine-3-carboxamide], the EC30 result is “+++ (“+++” means <3 uM)”.

`CC(C)COc1cc(F)cc(-c2ccc(C(=O)NS(=O)(=O)c3ccn[nH]3)c(N3CCC(OCC4CC4)CC3)n2)c1` [Compound 1088, 2-[4-(cyclopropylmethoxy)-1-piperidyl]-6-(3-fluoro-5-isobutoxy-phenyl)-N-(1H-pyrazol-5-ylsulfonyl)pyridine-3-carboxamide]: the EC30 entry was “+++ (“+++” means <3 uM)”.

With `Cc1ccc(-c2ccc(C(=O)NS(=O)(=O)c3nccnc3N)c(Oc3c(C)cc(C)cc3C)n2)cc1` [Compound 1047, N-(3-aminopyrazin-2-yl)sulfonyl-6-(p-tolyl)-2-(2,4,6-trimethylphenoxy)pyridine-3-carboxamide], the EC30 result is “+++ (“+++” means <3 uM)”.

`CC(=O)N1CCC(c2ccc(C(=O)NS(=O)(=O)c3cccc(N)n3)c(N3C[C@@H](C)CC3(C)C)n2)CC1` [Compound 1634, 6-(1-acetyl-4-piperidyl)-N-[(6-amino-2-pyridyl)sulfonyl]-2-[(4S)-2,2,4-trimethylpyrrolidin-1-yl]pyridine-3-carboxamide]: the EC30 entry was “++ (“++” means between 3 uM and 10 uM)”.

Take `CC(=O)C1CCC(c2ccc(C(=O)NS(=O)(=O)c3cccc(N)n3)c(Oc3c(C)cc(C)cc3C)n2)CC1` (stereo not shown) [Compound 1631, 6-(4-acetylcyclohexyl)-N-[(6-amino-2-pyridyl)sulfonyl]-2-(2,4,6-trimethylphenoxy)pyridine-3-carboxamide]: the EC30 result was “++ (“++” means between 3 uM and 10 uM)”.

In the case of `Cc1cc(C(=O)NS(=O)(=O)c2cccc(N)n2)c(N2CC(C)CC2(C)C)nc1-c1ccc(OC(C)C)nc1` (stereo not shown) [Compound 995, N-[(6-amino-2-pyridyl)sulfonyl]-6-(6-isopropoxy-3-pyridyl)-5-methyl-2-(2,2,4-trimethylpyrrolidin-1-yl)pyridine-3-carboxamide], the EC30 entry is reported as “+++ (“+++” means <3 uM)”.

As for `CC1CN(c2ncccc2C(=O)NS(=O)(=O)c2cccc(N3Cc4cccc5cccc(c45)C3)n2)C(C)(C)C1` (stereo not shown) [Compound 1986, N—[[6-(1,3-dihydrobenzo[de]isoquinolin-2-yl)-2-pyridyl]sulfonyl]-2-(2,2,4-trimethylpyrrolidin-1-yl)pyridine-3-carboxamide], the EC30 entry is on record as “+++ (“+++” means <3 uM)”.

Turning to `COc1ccc(/C=C/c2cnc(N3CC(C)CC3(C)C)c(C(=O)NS(=O)(=O)c3cccc(N)n3)c2)cc1` (stereo not shown) [Compound 1726, N-[(6-amino-2-pyridyl)sulfonyl]-5-[(E)-2-(4-methoxyphenyl)vinyl]-2-(2,2,4-trimethylpyrrolidin-1-yl)pyridine-3-carboxamide], the EC30 result was “+++ (“+++” means <3 uM)”.

For `CC(C)COc1cc(F)cc(-c2ccc(C(=O)NS(=O)(=O)c3cccc(N)n3)c(N3CC[C@H](C)[C@H](C)C3)n2)c1` [Compound 1724], the EC30 entry was “+++ (“+++” means <3 uM)”.
